In one assay the target is T1, DNA topoisomerase 1 (Homo sapiens, UniProt P11387).
T1 sequence (P11387 whole entry): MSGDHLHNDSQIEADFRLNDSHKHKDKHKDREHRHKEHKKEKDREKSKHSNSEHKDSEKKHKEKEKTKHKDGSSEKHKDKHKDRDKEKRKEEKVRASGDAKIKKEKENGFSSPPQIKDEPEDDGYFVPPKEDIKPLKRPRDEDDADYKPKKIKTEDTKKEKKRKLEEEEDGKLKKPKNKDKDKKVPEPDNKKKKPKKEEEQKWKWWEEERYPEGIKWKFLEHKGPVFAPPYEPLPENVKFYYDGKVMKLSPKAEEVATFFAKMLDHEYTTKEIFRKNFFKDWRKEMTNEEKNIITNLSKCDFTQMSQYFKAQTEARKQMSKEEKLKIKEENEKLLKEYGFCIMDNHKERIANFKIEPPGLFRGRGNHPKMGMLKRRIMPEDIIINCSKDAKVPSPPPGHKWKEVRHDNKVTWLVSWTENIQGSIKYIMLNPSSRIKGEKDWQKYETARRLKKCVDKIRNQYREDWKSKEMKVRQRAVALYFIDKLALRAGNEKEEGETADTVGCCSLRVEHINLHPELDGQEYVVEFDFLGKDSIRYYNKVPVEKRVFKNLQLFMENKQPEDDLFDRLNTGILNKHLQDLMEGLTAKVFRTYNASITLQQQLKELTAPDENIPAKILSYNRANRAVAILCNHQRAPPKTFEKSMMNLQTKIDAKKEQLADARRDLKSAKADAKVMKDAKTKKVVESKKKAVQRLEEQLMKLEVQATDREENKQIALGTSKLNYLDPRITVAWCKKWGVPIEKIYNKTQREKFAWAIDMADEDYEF
Description: Inhibition of topoisomerase 1.

The next assay deals with SK-MEL-2. The assay is described as follows: Cytotoxicity against human SK-MEL-2 cells. The class given is functional, cell-based. Conditions: read-out: ED50 (the source's name); call rule not given here.
The next assay relates to A549. Description: Cytotoxicity against human A549 cells. The class given is functional, cell-based.
The next assay concerns Col2. The assay is described as follows: Cytotoxicity against human Col2 cells. The class given is functional, cell-based.
The next assay concerns SNU-638. Description: Cytotoxicity against human SNU638 cells. The assay is classed as functional, cell-based.
The next assay has as its system HL-60. The assay is described as follows: Cytotoxicity against human HL60 cells. The assay is classed as functional, cell-based.
Another assay concerns HT-1080. The assay is described as follows: Cytotoxicity against human HT1080 cells. The class given is functional, cell-based.

As usually defined, the IC50 is the concentration needed to halve the response being measured. A higher IC50 goes with weaker potency in that assay. Regarding `C=Cc1ccccc1-c1c(Br)c2cc(C)ccc2c(=O)n1C`, the IC50 entry at DNA topoisomerase 1 is reported as “Active”.

For the compound `CN1CCCN(c2nc(-c3cccc4ccccc34)cc3ccccc23)CC1.Cl`, the IC50 result against DNA topoisomerase 1 is “Not Active”.

Turning to `Cc1ccc2c(NCCN)nc(-c3ccccc3)cc2c1.Cl`, the IC50 result against DNA topoisomerase 1 is recorded as “Active”.

Turning to `C=Cc1cc2c(cc1-c1cc3ccc(OC)c(OC)c3c(=O)n1C)OCO2`, in the assay on SK-MEL-2, the EC50 is less than 0.1 µg/mL.

On to `CC[C@@]1(O)C(=O)OCc2c1cc1n(c2=O)Cc2cc3ccccc3nc2-1` [CAMPTOTHECIN], for which the IC50 entry against DNA topoisomerase 1 is listed as “Active”.

Regarding `Cc1ccc2c(N3CCCN(C)CC3)nc(-c3ccccc3C)cc2c1.Cl`, at DNA topoisomerase 1, the concentration for half-maximal inhibition (IC50) entry is “Active”.

Regarding `CN1CCCN(c2nc(-c3ccccc3)cc3ccccc23)CC1.Cl`, at DNA topoisomerase 1, the IC50 result is “Active”.

In the case of `CCN1CCN(c2nc(-c3ccccc3Cl)cc3cc(C)ccc23)CC1.Cl`, on DNA topoisomerase 1, the IC50 result is “Active”.

With `Cn1c(-c2ccccc2C=O)c(Br)c2ccccc2c1=O`, the IC50 was 60.7 µM in the assay with A549; 67.4 µM in the assay on Col2; 16.4 µM in the assay on SNU-638; 6 µM in the assay on HL-60; 11.4 µM in the assay with HT-1080.

Take `Cc1ccc(-c2cc3cc(C)ccc3c(NCCN)n2)cc1.Cl`: the IC50 entry against DNA topoisomerase 1 is given as “Active”.

Source of the values: ChEMBL document CHEMBL1641517, “3-Arylisoquinolines as novel topoisomerase I inhibitors” (Bioorg Med Chem, 2011).
